From US20070009484A1, “Compositions and methods involving MDA-7 for the treatment of cancer” (Board of Regents, The University of Texas System, priority 2005, published 2007)
Marks after values point to notes of the source that are not given here. Peptide text beside a SMILES is read from it. * marks the point of attachment. Cbz = O=C(OCc1ccccc1)*; CH2F = FC*

Tests used:
MDA-MB231 cells = assay: Cell viability by trypan blue exclusion assay; format: cell-based, human; settings: for cell death (cytotoxicity) by cytokine protein: 30 ng/ml, 96 h
Method: (§1) MDA-MB231 and MDA-MB453 breast cancer lines were obtained from the America Type Culture Collection (ATCC, Manassas, Va.) and were maintained in DMEM (Hyclone, Inc., Logan, Utah) supplemented with 10% fetal bovine serum (Life Technologies, Inc.), 100 units/ml penicillin, 100 μg/ml streptomycin, 2 mM L-glutamine, and HEPES buffer (Life Technologies, Inc., Grand Island, N.Y.). The cells were screened routinely to verify lack of mycoplasma contamination and were used in the log phase of growth. […] Rabbit phospho-Stat3 (Tyr705) antibody was purchased from Cell Signaling Technology Inc. (Beverly, Mass.), β-Actin monoclonal antibody and terminal deoxynucleotidyl transferase-mediated dUTP-biotin nick-end labeling (TUNEL) kits were purchased from Oncogene Research Products (San Diego, Calif.), and all other primary and secondary antibodies were purchased from Santa Cruz Biotechnology (Santa Cruz, Calif.). Cell viability was analyzed by trypan blue exclusion assay. Cells were trypsinized and an aliquot suspended 1:1 volume with 0.4% trypan blue.
(§2) Full-length mda-7 cDNA was cloned into pCEP4 FLAG vector (Invitrogen, San Diego, Calif.) containing the CMV promoter. The plasmid was transfected into HEK 293 cells, and stable sub-clones were isolated using hygromycin (0.4 μg/ml).
(§3) The mda-7 gene was linked to an internal CMV-IE promoter, followed by an SV40 polyadenylation sequence. The same adenoviral vector containing the sequence for expression of luciferase (Ad-luc) was used as control virus. Cells were plated 1 day before infection.

MDA-MB453 cells = assay: Cell viability by trypan blue exclusion assay; format: cell-based, human; settings: for cell death (cytotoxicity) by cytokine protein: 30 ng/ml, 96 h
Method: as §1, §2, §3

STAT3 = assay: Phospho-STAT3 immunofluorescence assay; format: cell-based, human; settings: MDA-MB231 and MDA-MB453 cells
Method: Cells growing in chamber slides were treated with human IL-24 protein in various concentrations (0-20 ng/ml) for 30 min. Cells were fixed with ethanol:acetic acid (9.5:0.5) and then stained with phospho-Stat3 primary antibody and FITC-labeled secondary antibody. The slides were analyzed using a Nikon fluorescence microscope.

[1] = cited from earlier work
H1299 cells = assay: Cell viability assay (trypan blue exclusion); format: cell-based; settings: Ad-mda7 1000 vp/cell; Bivacizumab 0.78, 1.56, 3,125 ug/ml; up to 72 hours
Method: Cells treated with PBS served as a control. Cells were harvested at various time points as listed in figures and subjected to cell viability assay as previously described (Saeki et al., 2000).
(§4) H1299 cells (2×10^5/well) and HUVECs (3×10^5/well) were seeded in six-well plates. […] At 48 hours and […] after the treatment, cells were trypsinized and analyzed for trypan blue cell exclusion assay.

HUVECs [2] = assay: Cell viability assay (trypan blue exclusion); format: cell-based, human; settings: Ad-mda7 1000 vp/cell; Bivacizumab 0.78, 1.56, 3,125 ug/ml; 48 h and 72 h
Method: as §4

HUVECs [3] = assay: Endothelial cell proliferation with conditioned medium from treated H1299 cells; format: cell-based, human; settings: medium collected at 48 h; compared to PBS and Ad-luc
Method: For analysis of the effect of conditioned medium from Ad-mda7-treated H1299 on endothelial cell proliferation, human umbilical vein endothelial cells (HUVECs) were seeded in six-well plates (3×10^5 cells/well). […] HUVECs were incubated for an additional 3 days and later harvested and subjected to cell viability assay (Ramesh et al., 2003; Mhashilkar et al., 2001).

[4] = tested on: H1299 tumors in nude mice; assay: Subcutaneous H1299 xenograft; format: in vivo, mouse; settings: vector 1×10^10 vp intratumorally, Avastin 5 mg/Kg (100 ug/body) i.p., twice a week, 28 days
Method: Bivacizumab (100 ug/body) was given i.p. twice a week. Animals were weighed weekly and tumor growth was measured thrice a week as described previously (Saeki et al., 2002; Ramesh et al., 2003). At 28 days after the first treatment, all animals were killed via CO2 inhalation, and tumors were collected for histopathological examination and Western blot analysis. Two different sets of experiments were done.

[5] = tested on: A549 human lung cancer cells; assay: Flow cytometry analysis of apoptosis (propidium iodide); format: cell-based; settings: for percentage of apoptosis: 48 hrs
Method: (§5) Apoptosis of cells was measured by propidium iodide staining and FACS analysis. Cells were harvested, pelleted by centrifugation and resuspended in phosphate-buffered saline containing 50 μg/ml propidium iodide, 0.1% Triton X-100, and 0.1% sodium citrate and vortexed prior to FACS analysis (Becton-Dickenson FACScan, Mountain View, Calif.; FL-3 channel).

[6] = tested on: H460 human lung cancer cells; assay: as above; format: cell-based; settings: for percentage of apoptosis: 48 hrs
Method: as §5

MCF7/Her18 cells [7] = assay: Prostaglandin E2 (PGE2) measurement; format: cell-based, human; settings: 72-hour treatment, vectors MOI 2000 vp/cell, celecoxib 20 uM
Method: (§6) After a 72-hr incubation, 3 μl of arachidonic acid (1 mM) was added to the culture media to boost the PGE2 production for 30 minutes. The supernatant was collected and stored at −80° C. until PGE2 concentration was measured using an enzyme-linked immunoassay kit (Cayman Chemical, Ann Arbor, Mich.) according to the manufacturer's manual. The final results from the triplicated values were expressed as pg/ml.

MDA-MB-436 cells [8] = assay: Prostaglandin E2 (PGE2) measurement; format: cell-based, human; settings: 72-hour treatment, vectors MOI 1000 vp/cell, celecoxib 50 uM
Method: as §6

MCF7/Her18 cells [9] = assay: Cell cycle and apoptosis assay (PI, Annexin V/FITC, TUNEL); format: cell-based, human
Description: (§7) All the cultures were subconfluent at the time of harvest. Harvested cells were fixed with ice-cold 80% ethanol, stained with propidium iodide (PI) (Sigma, St. Louis, Mo.), and analyzed using a flow cytometer (FCM) (EPICS XL-MCL, Coulter, Miami, Fla.) as described previously. Cells floating in the media and trypsinized adherent cells were harvested and pelleted. The collected cells were washed, and then stained with Annexin V-fluorescein isothiocyanate (FITC)/PI using an Annexin V/FITC apoptosis detection kit (BD Biosciences, Franklin Lake, N.J.). The BrdU (5-bromo-2-deoxyuridine)/terminal deoxynucleotidyl transferase (TdT)-mediated 2′-deoxyuridine 5′-triphosphate (dUTP)-biotin nick end labeling (TUNEL) assay (APO-Direct, BD Biosciences, Franklin Lake, N.J.) was performed according to the manufacturer's protocol. Briefly, paraformaldehyde-fixed cells were washed and incubated with staining solution (10 μl of TdT reaction buffer, 0.75 μl of TdT enzyme, and 8 μl of FITC-dUTP) overnight. The following day, cells were rinsed and resuspended in 1 ml of PI/RNase solution. Following incubation in the dark for 30 minutes at room temperature, flow cytometry was performed to obtain the percentage of apoptotic cells. Cell cycles were analyzed with a program combined with the FCM (Multicycle, Phoenix Flow System, San Diego, Calif.).

MDA-MB-436 cells [10] = assay: as above; format: cell-based, human
Description: as §7

T47D cells [11] = assay: Annexin V apoptosis assay; format: cell-based, human; settings: T47D cells treated with Ad-mda7 2000 vp/cell
Method: Apoptosis was measured by TUNEL and Annexin V assays. […] Cell viability was determined by trypan-blue exclusion assay.

T47D cells [12] = assay: 3H-thymidine cell proliferation assay; format: cell-based, human; settings: Taxotere 0.5-2 ng/mL, 3 days
Method: (§8) Cells were plated at 500-2000 cells/well in 96-well format for ^3H-thymidine incorporation-assays, or at 10^5-10^6 cells/well in a 6-well plate format for protein expression, trypan blue viability or apoptosis assays. In drug combination studies, drugs were added once just prior to addition of vectors and cells were continuously exposed to agents.
(§9) The cells were harvested using Trypsin/EDTA (GIBCO), collected on a Filter using a Packard Filtermate cell Harvester, and washed in deionized water and methanol following the manufacturer protocols. The filters were dried and analyzed using a Matrix 9600 (Packard).

MCF-7 cells = assay: 3H-thymidine cell proliferation assay; format: cell-based, human; settings: Taxotere 0.5-2 ng/mL, 3 days
Method: as §8, §9

[13] = 30 ng/ml IL-24 with IL-10 0-300 ng/ml
[14] = 48 h, two doses of 17AAG, combination compared with Ad-luc and 17AAG

IL-22: IL-10 family cytokine
cell death (cytotoxicity) by cytokine protein (MDA-MB231 cells): none of these induced cell death above background levels
cell death (cytotoxicity) by cytokine protein (MDA-MB453 cells): none of these induced cell death above background levels

IL-10: recombinant IL-10
effect on IL-24-protein-induced killing (MDA-MB231 cells; [13]): significantly inhibited IL-24-protein-induced killing in a dose-dependent manner
cell death (cytotoxicity) by cytokine protein (MDA-MB231 cells): none of these induced cell death above background levels
effect on IL-24-protein-induced killing (MDA-MB453 cells; [13]): significantly inhibited IL-24-protein-induced killing in a dose-dependent manner
cell death (cytotoxicity) by cytokine protein (MDA-MB453 cells): none of these induced cell death above background levels
STAT3 activation (phospho-STAT3) (STAT3): able to activate STAT3

Cc1onc(-c2ccccc2)c1-c1ccc(S(N)(=O)=O)cc1 [valdecoxib, 4-(5-methyl-3-phenyl-4-isoxazolyl)benzenesulfonamide]
active metabolite concentration in human plasma relative to parent ([1]; human plasma): about 10%
time of peak plasma levels after an oral dose ([1]; in vivo): about 3 hours
delay of plasma levels with a high fat meal ([1]; in vivo): 1 to 2 h

Bevacizumab: VEGF inhibitor, monoclonal antibody that specifically binds VEGF
cell viability / toxicity (H1299 cells): did not show harmful effect
cell viability / toxicity (HUVECs [2]): inhibited HUVEC viability
HUVEC proliferation with conditioned medium from treated H1299 cells (HUVECs [3]): significantly inhibited HUVEC proliferation
tumor growth [4]: Significant inhibition of tumor growth

COC1=C2C[C@@H](C)C[C@H](OC)[C@H](O)[C@@H](C)/C=C(\C)[C@H](OC(N)=O)[C@@H](OC)/C=C\C=C(/C)C(=O)NC(=CC1=O)C2=O [GA, Geldanamycin]
percentage of apoptosis ([5]; GA 50 nm): 6.3%
percentage of apoptosis ([5]; GA 150 nm): 23.6%
percentage of apoptosis ([6]; GA 50 nm): 5.7%
percentage of apoptosis ([6]; GA 150 nm): 21%

Cc1ccc(-c2cc(C(F)(F)F)nn2-c2ccc(S(N)(=O)=O)cc2)cc1 [Celecoxib, 4-[5-(4-methylphenyl)-3-(trifluoromethyl)-1H-pyrazol-1-yl]benzenesulfonamide]
Prostaglandin E2 production (MCF7/Her18 cells [7]): 16.7^§ pg/ml
Prostaglandin E2 production (MDA-MB-436 cells [8]): 116.7^§ pg/ml
cell cycle effect (MCF7/Her18 cells [9]; 72-hour treatment): blocked more cells at the G1 checkpoint than Ad-mda7
apoptosis (Annexin V/FITC, TUNEL) (MCF7/Her18 cells [9]; 72-hr treatment): promoted apoptosis
cell cycle effect (MDA-MB-436 cells [10]; 72-hour treatment): blocked more cells at the G1 checkpoint than Ad-mda7
apoptosis (Annexin V/FITC, TUNEL) (MDA-MB-436 cells [10]; 72-hr treatment): promoted apoptosis
effective half-life ([1]; fasted conditions): roughly 11 hours
time of peak plasma levels after an oral dose ([1]; in vivo): roughly 3 hours
delay of plasma levels with a high fat meal ([1]; in vivo): 1 to 2 h
increase in total absorption with a high fat meal ([1]; in vivo): 10-20%
dose excreted in feces ([1]; single dose): 57%
dose excreted in the urine ([1]; single dose): 27%

CS(=O)(=O)c1ccc(C2=C(c3ccccc3)C(=O)OC2)cc1 [rofecoxib, 4-[4-(methylsulfonyl)phenyl]-3-phenyl-2-(5H)furanone]
time of peak plasma levels after an oral dose ([1]; in vivo): 2 to 3 h
delay of plasma levels with a high fat meal ([1]; in vivo): 1 to 2 h

COC(=O)C[C@H](NC(=O)[C@H](C)NC(=O)[C@@H](NC(=O)OCc1ccccc1)C(C)C)C(=O)CF [ZVAD] (Cbz-Val-Ala-Asp(OMe)-CH2F)
reduction of Ad-mda7 induced apoptosis (T47D cells [11]): 40%

C=CCNC1=C2C[C@@H](C)C[C@H](OC)[C@H](O)[C@@H](C)/C=C(\C)[C@H](OC(N)=O)[C@@H](OC)/C=C\C=C(/C)C(=O)NC(=CC1=O)C2=O [17AAG, 17-allyl-aminogeldanamycin]
cell death / apoptosis with 17AAG [5, 14]: resulted in cell death
cell death / apoptosis with 17AAG [6, 14]: resulted in cell death

CC(=O)O[C@@]12CO[C@@H]1C[C@H](O)[C@@]1(C)C(=O)[C@H](O)C3=C(C)[C@@H](OC(=O)[C@H](O)[C@@H](NC(=O)OC(C)(C)C)c4ccccc4)C[C@@](O)([C@@H](OC(=O)c4ccccc4)[C@H]21)C3(C)C [Taxotere, docetaxel]
inhibition of thymidine incorporation (T47D cells [12]): approximately 40%
inhibition of thymidine incorporation (MCF-7 cells): approximately 40%

B1: IL-24: purified human IL-24 (MDA-7) protein from 293-IL24 cell supernatant (protein)
chain: QEFHFGPCQVKGVVPQKLWEAFWAVKDTMQAQDNITSARLLQQEVLQNVSDAESCYLVHTLLEFYLKTVFKNYHNRTVEVRTLKSFSTLANNFVLIVSQLQPSQENEMFSIRDSAHRRFLLFRRAFKQLDVEAALTKALGEVDILLTWMQKFYKL
cell death (cytotoxicity) by cytokine protein (MDA-MB231 cells): induction of significant cell death
cell death (cytotoxicity) by cytokine protein (MDA-MB453 cells): induction of significant cell death
STAT3 activation (phospho-STAT3) (STAT3): able to activate STAT3

B2: IL-19: IL-10 family cytokine (protein, UniProt Q9UHD0 25-177, looked up)
Interleukin-19: LRRCLISTDMHHIEESFQEIKRAIQAKDTFPNVTILSTLETLQIIKPLDVCCVTKNLLAFYVDRVFKDHQEPNPKILRKISSIANSFLYMQKTLRQCQEQRQCHCRQEATNATRVIHDNYDQLEVHAAAIKSLGELDVFLAWINKNHEVMFSA
cell death (cytotoxicity) by cytokine protein (MDA-MB231 cells): none of these induced cell death above background levels
cell death (cytotoxicity) by cytokine protein (MDA-MB453 cells): none of these induced cell death above background levels
